Experiments:
OXA-11 = target: T1, OXA-11 (Pseudomonas aeruginosa, UniProt Q06778); assay: β-lactamase inhibitory activity, determination of IC50 (nitrocefin hydrolysis); format: biochemical
T1 construct: made in house; host or cells: E. coli

AmpC P. aeruginosa = AmpC P. aeruginosa (Pseudomonas aeruginosa, UniProt P24735); assay: as above
KPC-2 = target: T2, KPC-2 (Klebsiella pneumoniae, UniProt Q9F663); assay: as above; format: biochemical; settings: class (A); nitrocefin 200 μM, 30 min pre-incubation; read-out: IC50 β-lactamase KPC-2
T2 construct: made in house; host or cells: E. coli
T2 sequence (Q9F663 25-293 limits assumed): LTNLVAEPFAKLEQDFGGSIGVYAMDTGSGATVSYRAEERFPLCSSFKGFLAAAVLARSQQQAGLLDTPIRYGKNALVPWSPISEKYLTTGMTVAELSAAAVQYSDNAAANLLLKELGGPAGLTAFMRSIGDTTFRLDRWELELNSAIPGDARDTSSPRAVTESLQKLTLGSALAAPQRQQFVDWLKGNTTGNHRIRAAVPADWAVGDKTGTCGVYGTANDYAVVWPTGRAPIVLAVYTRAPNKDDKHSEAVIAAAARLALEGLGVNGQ

SHV-1 = target: T3, SHV-1 (Klebsiella pneumoniae, UniProt P0AD64); assay: as above; format: biochemical
T3 construct: made in house; host or cells: E. coli
T3 sequence (P0AD64 22-286): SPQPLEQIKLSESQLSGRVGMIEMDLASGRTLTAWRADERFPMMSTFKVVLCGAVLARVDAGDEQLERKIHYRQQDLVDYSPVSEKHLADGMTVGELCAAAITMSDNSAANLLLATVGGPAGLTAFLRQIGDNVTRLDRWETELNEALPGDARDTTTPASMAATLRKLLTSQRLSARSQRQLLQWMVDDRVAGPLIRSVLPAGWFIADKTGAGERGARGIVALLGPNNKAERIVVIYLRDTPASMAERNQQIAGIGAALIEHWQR

OXA-48 = target: T4, OXA-48 (Klebsiella pneumoniae, UniProt Q6XEC0); assay: as above; format: biochemical; settings: class (D); nitrocefin 200 μM, 30 min pre-incubation; read-out: IC50 β-lactamase OXA-48
T4 construct: made in house; host or cells: E. coli
T4 sequence (Q6XEC0 23-265 limits assumed): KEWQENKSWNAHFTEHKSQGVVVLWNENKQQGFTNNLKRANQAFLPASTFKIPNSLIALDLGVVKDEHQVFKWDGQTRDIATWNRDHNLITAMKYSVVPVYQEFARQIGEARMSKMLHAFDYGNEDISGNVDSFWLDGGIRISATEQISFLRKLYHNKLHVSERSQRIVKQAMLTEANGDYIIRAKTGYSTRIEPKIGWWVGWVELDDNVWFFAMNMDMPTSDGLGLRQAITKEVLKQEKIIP

CTX-M-15 = target: T5, CTX-M-15 (Escherichia coli, UniProt Q9EXV5); assay: as above; format: biochemical; settings: class (A); nitrocefin 200 μM, 30 min pre-incubation; read-out: IC50 β-lactamase CTX-M-15
T5 construct: made in house; host or cells: E. coli
T5 sequence (Q9EXV5 entry or part of it): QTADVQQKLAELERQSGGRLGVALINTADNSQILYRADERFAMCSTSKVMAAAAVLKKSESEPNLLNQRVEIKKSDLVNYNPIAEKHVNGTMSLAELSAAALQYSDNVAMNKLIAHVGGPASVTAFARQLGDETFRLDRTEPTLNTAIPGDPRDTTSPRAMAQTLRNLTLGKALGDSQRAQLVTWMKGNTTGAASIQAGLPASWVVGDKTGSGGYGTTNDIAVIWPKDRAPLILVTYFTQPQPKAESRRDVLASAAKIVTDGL

TEM-1 = target: T6, TEM-1 (Escherichia coli, UniProt P62593); assay: as above; format: biochemical
T6 construct: made in house; host or cells: E. coli
T6 sequence (P62593 24-286 limits assumed): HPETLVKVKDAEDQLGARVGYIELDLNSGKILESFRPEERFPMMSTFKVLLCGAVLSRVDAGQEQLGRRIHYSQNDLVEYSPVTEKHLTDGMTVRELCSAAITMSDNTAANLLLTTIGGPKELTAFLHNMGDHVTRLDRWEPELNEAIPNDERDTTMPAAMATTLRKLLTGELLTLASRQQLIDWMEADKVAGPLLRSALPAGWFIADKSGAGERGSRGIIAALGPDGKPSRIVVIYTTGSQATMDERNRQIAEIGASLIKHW

OXA-15 = target: T7, OXA-15 (Pseudomonas aeruginosa, UniProt Q51574); assay: biochemical
T7 construct: made in house; host or cells: E. coli
T7 sequence (Q51574 22-275): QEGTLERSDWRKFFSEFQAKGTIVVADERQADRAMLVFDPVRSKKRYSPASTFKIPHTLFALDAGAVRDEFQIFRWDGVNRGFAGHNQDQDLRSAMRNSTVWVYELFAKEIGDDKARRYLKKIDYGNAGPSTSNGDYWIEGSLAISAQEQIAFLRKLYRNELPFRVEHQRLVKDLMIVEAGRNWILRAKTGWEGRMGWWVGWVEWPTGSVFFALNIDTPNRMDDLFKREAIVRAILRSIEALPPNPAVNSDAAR

AmpC (P99) = AmpC (P99) (Enterobacter cloacae, UniProt P05364); assay: β-lactamase inhibitory activity, determination of IC50 (nitrocefin hydrolysis)
Sequence of AmpC (P99) (P05364 21-381): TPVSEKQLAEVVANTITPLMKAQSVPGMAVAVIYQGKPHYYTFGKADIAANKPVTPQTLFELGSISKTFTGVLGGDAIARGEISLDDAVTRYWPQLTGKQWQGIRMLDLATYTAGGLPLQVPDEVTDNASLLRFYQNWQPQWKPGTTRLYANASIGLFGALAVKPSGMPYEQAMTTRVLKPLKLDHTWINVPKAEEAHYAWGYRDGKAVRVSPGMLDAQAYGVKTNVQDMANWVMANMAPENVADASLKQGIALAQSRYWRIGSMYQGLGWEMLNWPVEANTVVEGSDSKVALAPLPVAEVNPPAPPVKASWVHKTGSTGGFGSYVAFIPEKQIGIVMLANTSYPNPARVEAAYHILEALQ

OXA-1 = target: T8, OXA-1 (Escherichia coli, UniProt P13661); assay: as above; format: biochemical; settings: class (D); nitrocefin 200 μM, 30 min pre-incubation; read-out: IC50 β-lactamase OXA-1
T8 construct: made in house; host or cells: E. coli
T8 sequence (P13661 26-276): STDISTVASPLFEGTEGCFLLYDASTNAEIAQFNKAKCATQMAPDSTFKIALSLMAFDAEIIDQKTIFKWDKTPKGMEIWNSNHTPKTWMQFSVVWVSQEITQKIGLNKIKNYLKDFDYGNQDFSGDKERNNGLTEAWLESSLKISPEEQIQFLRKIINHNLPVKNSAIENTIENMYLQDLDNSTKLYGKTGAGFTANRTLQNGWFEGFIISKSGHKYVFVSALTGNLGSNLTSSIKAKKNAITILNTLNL

[1] = system: P. aeruginosa CIP107051 (TEM-24); assay: MIC of compounds alone, broth microdilution; format: cell-based; settings: Pseudomonas aeruginosa; strain CIP107051 (P. aeruginosa); read-out: MIC compounds of the invention alone
Procedure: (§1) Method 2: MIC of Compounds and Synergy with Ceftazidime Against Bacterial Isolates (Table 2 and 3)
(§2) Compounds of the present invention were assessed against genotyped bacterial strains alone or in combination with the β-lactam ceftazidime (CAZ). In the assays, MICs of said compounds, or of ceftazidime at fixed concentrations of said compounds were determined by the broth microdilution method according to the Clinical Laboratory Standards Institute (CLSI-M7-A7). Briefly, compounds alone according to the invention were prepared in DMSO and spotted (2 μL each) on sterile polystyrene plates (Corning, 3788). Compounds and ceftazidime dilutions were prepared in DMSO and spotted (1 μL each) on sterile polystyrene plates (Corning, 3788). Log phase bacterial suspensions were adjusted to a final density of 5×10^5 cfu/mL in cation-adjusted Mueller-Hinton broth (Becton-Dickinson) and added to each well (98 μL). Microplates were incubated for 16-20 h at 35° C. in ambient air. The MIC of the compounds was defined as the lowest concentration of said compounds that prevented bacterial growth as read by visual inspection. The MIC of ceftazidime at each compound concentration was defined as the lowest concentration of ceftazidime that prevented bacterial growth as read by visual inspection.

[2] = system: E. coli 131119 (TEM-1, OXA-48); assay: MIC of compounds alone, broth microdilution; format: cell-based; settings: Escherichia coli; strain 131119 (E. coli); read-out: MIC compounds of the invention alone
Procedure: as §1, §2

[3] = system: K. pneumoniae 6299 (TEM-1, SHV-11, OXA-163); assay: MIC of compounds alone, broth microdilution; format: cell-based; settings: Klebsiella pneumoniae; strain 6299 (K. pneumoniae); read-out: MIC compounds of the invention alone
Procedure: as §1, §2

[4] = system: E. coli 190317 (TEM-1, SHV-12, CTX-M-15, OXA-1); assay: MIC of compounds alone, broth microdilution; format: cell-based; settings: Escherichia coli, read-out: MIC compounds of the invention alone
Procedure: as §1, §2

E. coli RGN238 (OXA-1) = assay: MIC of compounds alone, broth microdilution; format: cell-based; settings: Escherichia coli; strain RGN238 (E. coli); read-out: MIC compounds of the invention alone
Procedure: as §1, §2

[5] = system: K. pneumoniae BAA-1898 (TEM-1, SHV-11, SHV-12, KPC-2); assay: MIC of compounds alone, broth microdilution; format: cell-based; settings: Klebsiella pneumoniae, BAA1898; strain BAA-1898 (K. pneumoniae); read-out: MIC compounds of the invention alone
Procedure: as §1, §2

E. cloacae P99 (AmpC) = assay: MIC of compounds alone, broth microdilution; format: cell-based; settings: Enterobacter cloacae; strain P99 (E. cloacae); read-out: MIC compounds of the invention alone
Procedure: as §1, §2

T1 sequence (Q06778 21-266): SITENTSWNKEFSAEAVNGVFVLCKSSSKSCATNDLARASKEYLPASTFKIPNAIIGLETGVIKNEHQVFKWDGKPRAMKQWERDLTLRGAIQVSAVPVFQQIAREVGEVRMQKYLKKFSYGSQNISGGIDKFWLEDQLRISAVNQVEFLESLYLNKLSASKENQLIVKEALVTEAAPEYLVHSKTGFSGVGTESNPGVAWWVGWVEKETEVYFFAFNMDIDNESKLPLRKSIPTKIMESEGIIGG
Sequence of AmpC P. aeruginosa (P24735 27-397): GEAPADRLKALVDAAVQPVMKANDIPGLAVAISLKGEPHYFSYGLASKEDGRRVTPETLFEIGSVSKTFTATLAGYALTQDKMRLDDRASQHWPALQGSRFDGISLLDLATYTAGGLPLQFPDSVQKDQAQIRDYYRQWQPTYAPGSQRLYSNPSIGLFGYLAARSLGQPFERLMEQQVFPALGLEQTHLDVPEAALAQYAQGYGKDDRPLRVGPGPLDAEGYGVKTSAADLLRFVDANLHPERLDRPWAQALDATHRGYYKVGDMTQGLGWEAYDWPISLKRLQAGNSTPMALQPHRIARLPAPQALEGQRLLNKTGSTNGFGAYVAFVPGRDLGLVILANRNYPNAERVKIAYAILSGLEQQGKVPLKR

| SMILES | IC50 (OXA-11) [nM] | IC50 (AmpC P. aeruginosa) [nM] | IC50 (KPC-2) [nM] | IC50 (SHV-1) [nM] | IC50 (OXA-48) [nM] | IC50 (CTX-M-15) [nM] | IC50 (TEM-1) [nM] | IC50 (OXA-15) [nM] | IC50 (AmpC (P99)) [nM] | IC50 (OXA-1) [nM] | MIC [1] [µg/mL] | MIC [2] [µg/mL] | MIC [3] [µg/mL] | MIC [4] [µg/mL] | MIC (E. coli RGN238 (OXA-1)) [µg/mL] | MIC [5] [µg/mL] | MIC (E. cloacae P99 (AmpC)) [µg/mL] |
| --- | --- | --- | --- | --- | --- | --- | --- | --- | --- | --- | --- | --- | --- | --- | --- | --- | --- |
| O=C1N2CC=C(c3ccncc3)C(C2)N1OS(=O)(=O)[O-].[Na+] (stereo not shown) [Example 7, Sodium [4-(4-pyridyl)-7-oxo-1,6-diazabicyclo[3.2.1]oct-3-en-6-yl]sulfate] | 2300 | 2200 | 150 | 30 | 4.9 | 13 | 12 | 95 | 1700 | 250 | > 32 | > 32 | > 32 | 8 | > 32 | > 32 | > 32 |
| Cn1cc(C2=CCN3CC2N(OS(=O)(=O)[O-])C3=O)ccc1=O.[Na+] (stereo not shown) [Example 8, Sodium [4-(N-methyl-6-oxo-3-pyridyl)-7-oxo-1,6-diazabicyclo[3.2.1]oct-3-en-6-yl] sulfate] | 1400 | 3300 | 170 | 19 | 2.2 | 12 | 8.2 | 140 | 1900 | 690 | > 32 | > 32 | > 32 | 8 | > 32 | > 32 | > 32 |
| O=C1N2CC=C(c3cncnc3)C(C2)N1OS(=O)(=O)[O-].[Na+] (stereo not shown) [Example 10, Sodium [4-(pyrimidin-5-yl)-7-oxo-1,6-diazabicyclo[3.2.1]oct-3-en-6-yl] sulfate] | 1300 | 2600 | 130 | 21 | 6.1 | 8.3 | 7.7 | 140 | 1100 | 200 | > 32 | 16 | > 32 | > 32 | > 32 | > 32 | 16 |
| O=C1N2CC=C(c3ccccn3)C(C2)N1OS(=O)(=O)[O-].[Na+] (stereo not shown) [Example 11, Sodium [4-(2-pyridyl)-7-oxo-1,6-diazabicyclo[3.2.1]oct-3-en-6-yl]sulfate] | 6400 | 4600 | 1800 | 56 | 5.1 | 29 | 27 | 310 | 8900 | 1300 | > 32 | > 32 | > 32 | > 32 | > 32 | > 32 | > 32 |
| O=C1N2CC=C(c3cnccn3)C(C2)N1OS(=O)(=O)[O-].[Na+] (stereo not shown) [Example 12, Sodium [4-(pyrazin-2-yl)-7-oxo-1,6-diazabicyclo[3.2.1]oct-3-en-6-yl]sulfate] | 1200 | 1600 | 310 | 6.9 | 3.2 | 5.7 | 3.1 | 66 | 1400 | 350 | > 32 | 16 | > 32 | > 32 | > 32 | > 32 | > 32 |

Reference: patent publication US10183943B2, “Heterocyclic compounds and their use in preventing or treating bacterial infections” (MUTABILIS, priority 2015, dated 2019)
